In ChEMBL document CHEMBL1141099, “Discovery of N-(2,6-dimethylphenyl)-substituted semicarbazones as anticonvulsants: hybrid pharmacophore-based design” (2005):

How the values were obtained:
[1] = system: Mus musculus; test: Minimum dose required for anticonvulsant activity when given i.p., at 0.5 hr in mice upon subcutaneous pentylenetetrazole seizure; format: functional
[2] = biological target: 4-aminobutyrate aminotransferase, mitochondrial (Rattus norvegicus) (UniProt P50554); test: In vitro percentage inhibition activity against GABA-T enzyme at a concentration of 5 uM after 3 h
4-aminobutyrate aminotransferase, mitochondrial (Rattus norvegicus), sequence (P50554 28-500 limits assumed): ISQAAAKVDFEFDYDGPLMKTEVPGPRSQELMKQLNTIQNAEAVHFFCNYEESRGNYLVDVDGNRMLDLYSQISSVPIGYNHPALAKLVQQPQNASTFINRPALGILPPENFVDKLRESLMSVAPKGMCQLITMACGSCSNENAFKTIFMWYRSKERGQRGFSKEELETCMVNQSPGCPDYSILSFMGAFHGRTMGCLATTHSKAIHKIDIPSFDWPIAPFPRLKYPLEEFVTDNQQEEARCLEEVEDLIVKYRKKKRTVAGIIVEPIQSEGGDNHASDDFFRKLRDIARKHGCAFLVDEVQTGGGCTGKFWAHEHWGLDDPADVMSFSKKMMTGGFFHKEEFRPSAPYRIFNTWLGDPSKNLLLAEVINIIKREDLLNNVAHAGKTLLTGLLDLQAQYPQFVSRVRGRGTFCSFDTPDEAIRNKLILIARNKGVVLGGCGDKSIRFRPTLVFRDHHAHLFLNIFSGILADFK

[3] = system: Rattus norvegicus; test: Number of rats protected at a dose of 30 mg/Kg when given oral at 1 hr upon maximal electroshock seizure; Total number of rats = 4; format: functional
[4] = biological target: 4-aminobutyrate aminotransferase, mitochondrial (Rattus norvegicus) (UniProt P50554); test: In vitro percentage inhibition activity against GABA-T enzyme at a concentration of 5 uM after 4.5 h
[5] = species: Rattus norvegicus; test: Ex vitro percentage inhibition activity against GABA-T enzyme at a concentration of 1.25 uM after 3 h; format: functional
[6] = species: Rattus norvegicus; test: Ex vitro percentage inhibition activity against GABA-T enzyme at a concentration of 1.25 uM after 4.5 h; format: functional
[7] = system: Mus musculus; test: Minimum dose required for anticonvulsant activity when given i.p., at 0.5 hr in mice upon maximal electroshock seizure; format: functional
[8] = system: Rattus norvegicus; test: Number of rats protected at a dose of 30 mg/Kg when given oral at 0.5 hr upon maximal electroshock seizure; Total number of rats = 4; format: functional
[9] = system: Rattus norvegicus; test: Number of rats protected at a dose of 30 mg/Kg when given oral at 0.25 hr upon maximal electroshock seizure; Total number of rats = 4; format: functional
[10] = system: Rattus norvegicus; test: Number of rats protected at a dose of 30 mg/Kg when given oral at 4 hr upon maximal electroshock seizure; Total number of rats = 4; format: functional
[11] = system: Mus musculus; test: Post treatment activity score for CNS study using a actophotometer at a dose of 100 mg/Kg after 1 hr when given i.p., in mice (No. of animals 6); Control (24h before) 268
[12] = species: Rattus norvegicus; test: Ex vitro percentage inhibition activity against GABA-T enzyme at a concentration of 1.25 uM after 6 h; format: functional
[13] = system: Rattus norvegicus; test: Effect on GABA level in rat whole brain concentration after 7 days post-treatment at a dose of 30 mg/Kg when given orally; Control 50.5; format: functional
[14] = system: Rattus norvegicus; test: Toxic dose observed for anticonvulsant activity when given orally at 2 hr in rat upon neurotoxicity seizure; format: functional; conditions: po
[15] = system: Rattus norvegicus; test: Number of rats protected at a dose of 30 mg/Kg when given oral at 2 hr upon maximal electroshock seizure; Total number of rats = 4; format: functional
[16] = system: Mus musculus; test: Post treatment immobility time for CNS study using Porsolt's swimpool test at a dose of 100 mg/Kg after 1 hr when given i.p., in mice (No. of animals 6); Control (24h before) 146
[17] = system: Rattus norvegicus; test: Effective dose required for anticonvulsant activity when given orally at 2 h in rat upon maximal electroshock seizure; format: functional; conditions: po
[18] = system: Mus musculus; test: Mean sleeping time evaluated for CNS study using the pentobarbital-induced narcosis model at a dose of 100 mg/Kg when given i.p., in mice (No. of animals 6)
[19] = system: Rattus norvegicus; test: Enzymatic activity to assess the increase in level of SGOT at a dose of 30 mg/Kg for 14 days when given p.o., in 6 rats; Control 73.1; format: functional
[20] = system: Mus musculus; test: Minimum dose required for anticonvulsant activity when given i.p., at 2 hr in mice upon subcutaneous strychnine seizure; format: functional
[21] = system: Rattus norvegicus; test: Effect on GABA level in rat whole brain concentration after 2 hr post-treatment at a dose of 100 mg/Kg when given i.p.; Control 48.4; format: functional
[22] = biological target: 4-aminobutyrate aminotransferase, mitochondrial (Rattus norvegicus) (UniProt P50554); test: In vitro percentage inhibition activity against GABA-T enzyme at a concentration of 5 uM after 6 h
[23] = system: Mus musculus; test: Post treatment activity score for CNS study using a actophotometer at a dose of 100 mg/Kg after 0.5 hr when given i.p., in mice (No. of animals 6); Control (24h before) 268
[24] = system: Rattus norvegicus; test: Enzymatic activity to assess the increase in level of SGPT at a dose of 30 mg/Kg for 14 days when given p.o., in 6 rats; Control 45.0; format: functional
[25] = species: Rattus norvegicus; test: Protective index between effective dose and toxic dose in rat; format: functional
[26] = system: Mus musculus; test: Minimum dose required for anticonvulsant activity when given i.p., at 0.5 hr in mice upon subcutaneous strychnine seizure; format: functional
[27] = system: Mus musculus; test: Minimum dose required for anticonvulsant activity when given i.p., at 4 hr in mice upon maximal electroshock seizure; format: functional
[28] = system: Mus musculus; test: Minimum dose required for anticonvulsant activity when given i.p., at 0.5 hr in mice upon neurotoxicity seizure using rotarod test; format: functional
[29] = system: Mus musculus; test: Post treatment immobility time for CNS study using Porsolt's swimpool test at a dose of 100 mg/Kg after 1 hr when given i.p., in mice (No. of animals 6); Control (24h before) 182
[30] = system: Mus musculus; test: Post treatment activity score for CNS study using a actophotometer at a dose of 100 mg/Kg after 0.5 hr when given i.p., in mice (No. of animals 6); Control (24h before) 245
[31] = system: Rattus norvegicus; test: Toxic dose observed for anticonvulsant activity when given i.p., at 2 hr in rat upon neurotoxicity seizure; format: functional; conditions: ip
[32] = biological target: 4-aminobutyrate aminotransferase, mitochondrial (Rattus norvegicus) (UniProt P50554); test: In vitro percentage inhibition activity against GABA-T enzyme at a concentration of 0.625 uM after 3 h
[33] = system: Rattus norvegicus; test: Effective dose required for anticonvulsant activity when given i.p., at 2 hr in rat upon maximal electroshock seizure; format: functional; conditions: ip
[34] = biological target: 4-aminobutyrate aminotransferase, mitochondrial (Rattus norvegicus) (UniProt P50554); test: In vitro percentage inhibition activity against GABA-T enzyme at a concentration of 0.625 uM after 4.5 h
[35] = system: Mus musculus; test: Post treatment activity score for CNS study using a actophotometer at a dose of 100 mg/Kg after 1 hr when given i.p., in mice (No. of animals 6); Control (24h before) 245
[36] = biological target: 4-aminobutyrate aminotransferase, mitochondrial (Rattus norvegicus) (UniProt P50554); test: In vitro percentage inhibition activity against GABA-T enzyme at a concentration of 0.625 uM after 6 h

Cc1ccc(/C=N/NC(=O)Nc2c(C)cccc2C)cc1
PTZ seizure [1]: 300 mg/kg
inhibition [2]: 55%
Activity [3]: 3
inhibition [4]: 70%
Inhibition [5]: 32%
Inhibition [6]: 75%
MES [7]: 100 mg/kg
Activity [8]: 2
Activity [9]: 0
Activity [10]: 3
Activity [11]: 133
Inhibition [12]: 48%
Activity [13]: 100 ug/100mg of tissue
TD50 [14]: > 120 mg/kg
Activity [15]: 4
Activity [16]: 225
ED50 [17]: 33.1 mg/kg
Time [18]: 150 min
SGOT activity [19]: 70.2 units/mL
STY seizure [20]: 100 mg/kg
Activity [21]: 90.2 ug/100mg of tissue
inhibition [22]: 0%
Activity [23]: 175
SGPT activity [24]: 47.3 units/mL
PI [25]: >3.62
STY seizure [26]: 100 mg/kg
MES [27]: 300 mg/kg

CN1C(=O)CC(=O)N(c2ccccc2)c2cc(Cl)ccc21 [CLOBAZAM]
Activity [13]: 110 ug/100mg of tissue
Activity [21]: 101 ug/100mg of tissue

COc1ccc(/C=N/NC(=O)Nc2c(C)cccc2C)cc1
PTZ seizure [1]: 300 mg/kg
Activity [3]: 3
MES [7]: 100 mg/kg
Activity [8]: 4
Activity [9]: 1
Activity [10]: 3
Activity [15]: 3
NT [28]: 300 mg/kg
STY seizure [20]: 100 mg/kg
STY seizure [26]: 30 mg/kg
MES [27]: 300 mg/kg

Cc1cccc(C)c1NC(=O)N/N=C/c1ccc([N+](=O)[O-])cc1
PTZ seizure [1]: 300 mg/kg
Activity [3]: 2
MES [7]: 100 mg/kg
Activity [8]: 1
Activity [9]: 1
Activity [10]: 1
Activity [15]: 1
NT [28]: 300 mg/kg
STY seizure [20]: 100 mg/kg
STY seizure [26]: 30 mg/kg
MES [27]: 300 mg/kg

Cc1cccc(C)c1NC(=O)N/N=C/c1ccccc1Cl
PTZ seizure [1]: 300 mg/kg
Activity [3]: 1
MES [7]: 100 mg/kg
Activity [8]: 1
Activity [9]: 2
Activity [10]: 4
Activity [15]: 1
NT [28]: 300 mg/kg
STY seizure [20]: 100 mg/kg
STY seizure [26]: 30 mg/kg
MES [27]: 300 mg/kg

Cc1cccc(C)c1NC(=O)N/N=C/c1ccc(N(C)C)cc1
PTZ seizure [1]: 300 mg/kg
Activity [3]: 2
Activity [29]: 207
Inhibition [5]: 0%
Activity [30]: 147
Inhibition [6]: 0%
TD50 [31]: > 250 mg/kg
MES [7]: 100 mg/kg
Activity [8]: 2
Activity [9]: 1
Activity [10]: 4
Inhibition [12]: 9%
inhibition [32]: 0%
Activity [13]: 68.1 ug/100mg of tissue
ED50 [33]: 18.3 mg/kg
Activity [15]: 3
NT [28]: 300 mg/kg
STY seizure [20]: 100 mg/kg
Activity [21]: 75.5 ug/100mg of tissue
inhibition [34]: 64%
Activity [35]: 124
inhibition [36]: 0%
PI [25]: >13.6
STY seizure [26]: 100 mg/kg
MES [27]: 300 mg/kg
